Experiments:
PC-3 = assay: Antiproliferative activity against human PC3 cells after 72 hrs by SRB assay; assay type: functional, cell-based; details: PC-3, 72 h
SK-OV-3 = assay: Antiproliferative activity against human SKOV3 cells after 72 hrs by SRB assay; assay type: functional, cell-based; details: SK-OV-3, 72 h

Compound	IC50 (PC-3)	IC50 (SK-OV-3)
CC(C)[C@]12O[C@H]1C=C1[C@]3(O[C@H]3C[C@H]3C4=C(CC[C@]13C)C(=O)NC4)C2=O	0.9 µM	20 nM
CC(C)[C@]12O[C@H]1[C@@H]1O[C@@]13[C@@]1(C)CCC4=C(CNC4=O)[C@@H]1C[C@@H]1O[C@@]13C2=O	14 µM	20 nM
CC(C)[C@@]12O[C@@H]1[C@H]1O[C@]13[C@@]1(C)CCC4=C(COC4=O)[C@H]1C[C@@H]1O[C@@]13C2=O	> 100 µM	> 100000 nM
CC(C)[C@]12O[C@H]1[C@H]1O[C@]13[C@@]1(C)CCC4=C(COC4=O)[C@H]1C[C@@H]1O[C@@]13C2=O	> 100 µM	> 100000 nM
CC(C)[C@]12O[C@H]1[C@H]1O[C@]13[C@@]1(C)CCC4=C(COC4=O)[C@H]1C[C@H]1O[C@@]13C2=O	> 100 µM	4600 nM
CC(C)[C@]12O[C@H]1[C@@H]1O[C@]13[C@]1(O[C@H]1C[C@H]1C4=C(CC[C@@]13C)C(=O)OC4)[C@@H]2O [TRIPTOLIDE]		6 nM
CC(C)[C@]12O[C@H]1[C@@H]1O[C@@]13[C@@]1(C)CCC4=C(COC4=O)[C@@H]1C[C@@H]1O[C@@]13C2=O [TRIPTONIDE]	0.6 µM	8 nM

Now from value to molecule:

IC50 (PC-3)	IC50 (SK-OV-3)	Compound
2.7 µM	3 nM	CC(C)[C@]12O[C@H]1C=C1[C@]3(O[C@H]3C[C@H]3C4=C(CC[C@]13C)C(=O)OC4)C2=O
0.01 µM	0.05 nM	CC(C)[C@]12O[C@H]1C=C1[C@]3(O[C@H]3C[C@H]3C4=C(CC[C@]13C)C(=O)OC4)[C@@H]2O
29 µM	500 nM	CC(C)[C@]12O[C@H]1C=C1[C@]3(O[C@H]3C[C@H]3C4=C(CC[C@]13C)C(=O)OC4)[C@H]2O
> 100 µM	> 100000 nM	CC(C)[C@]12O[C@H]1[C@H](O)[C@@]1(O)[C@@]3(C)CCC4=C(COC4=O)[C@@H]3C[C@@H]3O[C@@]31C2=O
> 100 µM	95000 nM	CC(C)[C@@]12O[C@@H]1C=C1[C@]3(O[C@H]3C[C@@H]3C4=C(CC[C@]13C)C(=O)OC4)C2=O
29 µM	66000 nM	CC(C)[C@]12O[C@H]1C=C1[C@]3(O[C@H]3C[C@@H]3C4=C(CC[C@]13C)C(=O)OC4)C2=O
> 100 µM	> 100000 nM	CC(C)[C@]12O[C@H]1C=C1[C@]3(O[C@H]3C[C@@H]3C4=C(CC[C@]13C)C(=O)OC4)[C@@H]2O
> 100 µM	56000 nM	CC(C)[C@@]12O[C@@H]1C=C1[C@]3(O[C@@H]3C[C@@H]3C4=C(CC[C@]13C)C(=O)OC4)[C@@H]2O

Reference: ChEMBL document CHEMBL1268882, “Synthesis and biological evaluation of novel triptolide analogues for anticancer activity” (Bioorg Med Chem Lett, 2010)
